Values quoted from earlier work, collected in US20110053879A1, “[…] AND AMRUBICIN TO TREAT LUNG CANCER” (priority 2008, published 2011).

Columns and labels:
extensive-stage SCLC = conditions: 45 mg/m^2 on days 1 to 3; chemotherapy-naive patients; intent-to-treat analysis
[1] = preclinical studies
stage III or IV non-SCLC = conditions: 45 mg/m^2 on days 1 to 3; chemotherapy-naive patients; intent-to-treat analysis
human tumor xenografts = conditions: several human tumor xenografts implanted in nude mice
[2] = phase II trial
[3] = a specific crystalline form (JP 11-222497 A)

| SMILES | response rate, extensive-stage SCLC (extensive-stage SCLC) [%] | cardiotoxicity [1] | response rate, stage III or IV non-SCLC (stage III or IV non-SCLC) [%] | antitumor activity compared with doxorubicin (human tumor xenografts) | strength as a DNA intercalator relative to doxorubicin (weaker) (DNA) | grade 3 or 4 anemia [2] [%] | grade 3 or 4 anorexia [2] [%] | grade 3 or 4 leukopenia [2] [%] | grade 3 or 4 nausea/vomiting [2] [%] | grade 3 or 4 neutropenia [2] [%] | grade 3 or 4 thrombocytopenia [2] [%] | heat stability [3] |
| --- | --- | --- | --- | --- | --- | --- | --- | --- | --- | --- | --- | --- |
| CC(=O)[C@]1(N)Cc2c(O)c3c(c(O)c2[C@@H](O[C@H]2C[C@H](O)[C@H](O)CO2)C1)C(=O)c1ccccc1C3=O [amrubicin, (7S,9S)-9-Acetyl-9-amino-7-[(2-deoxy-β-D-erythro-pentapyranosyl)oxy]-7,8,9,10-tetrahydro-6,11-dihydroxy-5,12-nephthacenedione] | 79 | almost no cardiotoxicity | 25 | more potent antitumor activity than doxorubicin | approximately 1/10 | 23.0 | 4.9 | 52.5 | 4.9 | 72.1 | 14.8 | – |
| CC(O)[C@]1(N)Cc2c(O)c3c(c(O)c2[C@@H](O[C@H]2C[C@H](O)[C@H](O)CO2)C1)C(=O)c1ccccc1C3=O (stereo partly shown) [amrubicinol] | – | – | – | – | approximately 1/10 | – | – | – | – | – | – | – |
| CC(=O)[C@]1(N)Cc2c(O)c3c(c(O)c2[C@@H](O[C@H]2C[C@H](O)[C@H](O)CO2)C1)C(=O)c1ccccc1C3=O.Cl [Amrubicin hydrochloride] | – | – | – | – | – | – | – | – | – | – | – | excellent in heat stability |
